Target: C5aR (Homo sapiens (Human), UniProt P21730)
Test: Chemotaxis assay using U937 cells (C5aR mediated migration)
Type: cell-based
Settings: read-out: Mig IC50
Method in brief: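 Migration toward 0.03 nM C5a, mixed with varying compound in the lower chamber (HBSS with 1% FBS), was measured over 1.5 h at 37° C through 5 μm filters. Upper chamber held 100,000 U937 cells treated overnight with 0.5 mM cAMP; migrated cells quantified by counts or CyQuant for IC50, SDF-1α as specificity control.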

Sequence of C5aR (P21730 whole entry): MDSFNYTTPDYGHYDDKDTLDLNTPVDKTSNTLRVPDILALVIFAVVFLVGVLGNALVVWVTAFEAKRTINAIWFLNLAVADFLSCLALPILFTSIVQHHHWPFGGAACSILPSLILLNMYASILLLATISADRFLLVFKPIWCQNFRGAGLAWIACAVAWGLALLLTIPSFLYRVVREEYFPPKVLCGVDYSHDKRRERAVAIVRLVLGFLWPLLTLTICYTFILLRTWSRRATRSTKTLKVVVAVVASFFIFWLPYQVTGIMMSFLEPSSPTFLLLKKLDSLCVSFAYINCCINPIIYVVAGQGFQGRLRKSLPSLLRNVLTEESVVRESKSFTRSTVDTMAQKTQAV

Row | SMILES | IC50
1 | Cc1cccc(OCC(C)C)c1-n1nc2c(c1-c1ccc(C(N)=O)cc1)CN(C(=O)OC(C)(C)C)CC2 [Example 1.411] | > 500 nM
2 | Cc1cccc(OCC(C)C)c1-n1nc2c(c1-c1ccc(NC(N)=O)cc1)CN(c1cccc(C(F)(F)F)c1)CC2 [Example 1.412] | ≤ 5 nM
3 | Cc1cccc(OCC(C)C)c1-n1nc2c(c1-c1ccc(NC(N)=O)cc1)CN(c1ccc(C(F)(F)F)c(Cl)c1)CC2 [Example 1.413] | 5 to 50 nM
4 | Cc1cccc(CCC(C)C)c1-n1nc2c(c1-c1ccc(NC(N)=O)cc1)CN(C(=O)OC(C)(C)C)CC2 [Example 1.414] | 50 to 500 nM
5 | Cc1cccc(CC(C)C)c1-n1nc2c(c1-c1ccc(NC(N)=O)cc1)CN(C(=O)OC(C)(C)C)CC2 [Example 1.415] | 50 to 500 nM
6 | CC(C)c1ccccc1-n1nc2c(c1-c1ccc(NC(N)=O)cc1)CN(C(=O)OC(C)(C)C)CC2 [Example 1.416] | > 500 nM
7 | Cc1cccc(C)c1-n1nc2c(c1-c1ccc(NC(N)=O)cc1)CN(C(=O)OC(C)(C)C)CC2 [Example 1.417] | 50 to 500 nM
8 | Cc1ccc(C(F)(F)F)cc1N1CCc2nn(-c3c(C)cccc3OCC(C)C)c(-c3ccc(NC(N)=O)cc3)c2C1 [Example 1.418] | 5 to 50 nM
9 | Cc1cccc(OCC(C)C)c1-n1nc2c(c1-c1ccc(NC(N)=O)cc1)CN(c1ccc(F)cc1C(C)C)CC2 [Example 1.419] | 5 to 50 nM
10 | Cc1cccc(C)c1-n1nc2c(c1-c1ccc(C(N)=O)cc1)CN(C(=O)OC(C)(C)C)CC2 [Example 1.420] | > 500 nM
11 | Cc1cccc(OCC(C)C)c1-n1nc2c(c1-c1ccc(NC(N)=O)cc1)CN(c1cc(C(C)(C)C)ccc1F)CC2 [Example 1.421] | ≤ 5 nM
12 | Cc1cccc(OCC(C)C)c1-n1nc2c(c1-c1ccc(NC(N)=O)cc1)CN(c1cc(C(C)(C)C)ccc1Cl)CC2 [Example 1.422] | 5 to 50 nM
13 | Cc1ccc(F)cc1N1CCc2nn(-c3c(C)cccc3OCC(C)C)c(-c3ccc(NC(N)=O)cc3)c2C1 [Example 1.423] | 5 to 50 nM
14 | Cc1cccc(OCC(C)C)c1-n1nc2c(c1-c1ccc(NC(N)=O)cc1)CN(C(=O)COC(C)(C)C)CC2 [Example 1.424] | > 500 nM
15 | Cc1cccc(OCC(C)C)c1-n1nc2c(c1-c1ccc(NC(N)=O)cc1)CN(C(=O)C1CCCCC1)CC2 [Example 1.425] | > 500 nM
16 | Cc1cccc(OCC(C)C)c1-n1nc2c(c1-c1ccc(NC(N)=O)cc1)CN(C(=O)C1CCC1)CC2 [Example 1.426] | 50 to 500 nM
17 | Cc1cc(F)c(C(C)C)cc1N1CCc2nn(-c3c(C)cccc3OCC(C)C)c(-c3ccc(NC(N)=O)cc3)c2C1 [Example 1.427] | ≤ 5 nM
18 | Cc1cccc(C(C)C)c1-n1nc2c(c1-c1ccc(NC(N)=O)cc1)CN(C(=O)OC(C)(C)C)CC2 [Example 1.428] | 50 to 500 nM
19 | Cc1cccc(OCC(C)C)c1-n1nc2c(c1-c1ccc(NC(N)=O)cc1)CN(C(=O)CCc1ccccc1)CC2 [Example 1.429] | 50 to 500 nM
20 | Cc1cccc(OCC(C)C)c1-n1nc2c(c1-c1ccc(NC(N)=O)cc1)CN(C(=O)Cc1ccccc1)CC2 [Example 1.430] | > 500 nM
21 | Cc1cccc(OCC(C)C)c1-n1nc2c(c1-c1ccc(NC(N)=O)cc1)CN(C(=O)c1ccccc1)CC2 [Example 1.431] | 50 to 500 nM
22 | Cc1cccc(OCC(C)C)c1-n1nc2c(c1-c1ccc(NC(N)=O)cc1)CN(C(=O)c1ccc(C(C)(C)C)cc1)CC2 [Example 1.432] | 50 to 500 nM
23 | Cc1cccc(OCC(C)C)c1-n1nc2c(c1-c1ccc(NC(N)=O)cc1)CN(C(=O)c1cccc(C(C)(C)C)c1)CC2 [Example 1.433] | 50 to 500 nM

Row | SMILES | IC50
24 | Cc1cccc(OCC(C)C)c1-n1nc2c(c1-c1ccc(NC(N)=O)cc1)CN(C(=O)c1ccccc1C(C)C)CC2 [Example 1.434] | 50 to 500 nM
25 | Cc1cccc(OCC(C)C)c1-n1nc2c(c1-c1ccc(NC(N)=O)cc1)CN(C(=O)CC(C)(C)C)CC2 [Example 1.435] | 50 to 500 nM
26 | Cc1cccc(OCC(C)C)c1-n1nc2c(c1-c1ccc(NC(N)=O)cc1)CN(C(=O)C(C)(C)C)CC2 [Example 1.436] | 50 to 500 nM
27 | Cc1cccc(OCC(C)C)c1-n1nc2c(c1-c1ccc(NC(N)=O)cc1)CN(C(=O)NC(C)(C)C)CC2 [Example 1.437] | > 500 nM
28 | Cc1cccc(OCC(C)C)c1-n1nc2c(c1-c1ccc(NC(N)=O)cc1)CN(C(=O)C1CCCC1)CC2 [Example 1.438] | 50 to 500 nM
29 | Cc1cccc(OCC(C)C)c1-n1nc2c(c1-c1ccc(NC(N)=O)cc1)CN(C(=O)OC(C)(C)C)CC2 [Example 1.439] | 5 to 50 nM
30 | Cc1ccc(N2CCc3nn(-c4c(C)cccc4OCC(C)C)c(-c4ccc(NC(N)=O)cc4)c3C2)cc1C(F)(F)F [Example 1.440] | 5 to 50 nM
31 | Cc1cc(NC(N)=O)ccc1-c1c2c(nn1-c1c(C)cccc1OCC(C)C)CCN(c1cc(C(C)(C)C)ccc1C)C2 [Example 1.441] | ≤ 5 nM
32 | Cc1ccc(C(C)(C)C)cc1N1CCc2nn(-c3c(C)cccc3C)c(-c3ccc(NC(N)=O)cc3)c2C1 [Example 1.442] | 5 to 50 nM
33 | Cc1cc(C(N)=O)ccc1-c1c2c(nn1-c1c(C)cccc1OCC(C)C)CCN(c1cc(C(C)(C)C)ccc1C)C2 [Example 1.443] | 50 to 500 nM
34 | Cc1ccc(C(C)(C)C)cc1N1CCc2nn(-c3c(C)cccc3OC(C)C)c(-c3ccc(NC(N)=O)cc3)c2C1 [Example 1.444] | ≤ 5 nM
35 | Cc1ccc(C(C)(C)C)cc1N1CCc2nn(-c3c(C)cccc3OCC(C)C)c(-c3ccc(C(N)=O)cc3)c2C1 [Example 1.445] | 5 to 50 nM
36 | Cc1ccc(C(C)(C)C)cc1N1CCc2nn(-c3c(C)cccc3C)c(-c3ccc(OC(C)C)cc3)c2C1 [Example 1.446] | > 500 nM
37 | COc1cccc(C)c1-n1nc2c(c1-c1ccc(NC(N)=O)nc1)CN(c1ccccc1C(C)C)CC2 [Example 1.447] | 50 to 500 nM
38 | Cc1cccc(OCC(C)C)c1-n1nc2c(c1-c1ccc(C(C)(C)O)cc1)CN(c1ccccc1C(C)(C)C)CC2 [Example 1.449] | > 500 nM
39 | Cc1cccc(OCC(C)C)c1-n1nc2c(c1-c1ccc(CO)cc1)CN(c1ccccc1C(C)(C)C)CC2 [Example 1.450] | 50 to 500 nM
40 | COc1cccc(F)c1-n1nc2c(c1-c1ccc(NC(N)=O)cc1)CN(c1cc(C(C)(C)C)ccc1C)CC2 [Example 1.451] | 50 to 500 nM
41 | Cc1ccc(C(C)(C)C)cc1N1CCc2nn(-c3c(C)cccc3C)c(-c3ccc(O)cc3)c2C1 [Example 1.452] | 5 to 50 nM
42 | Cc1cccc(OCC(C)C)c1-n1nc2c(c1-c1ccc(C(N)=O)cc1)CN(c1ccccc1C(C)(C)C)CC2 [Example 1.453] | 5 to 50 nM
43 | Cc1cccc(OCC(C)C)c1-n1nc2c(c1-c1ccc(NC(N)=O)cc1)CN(c1ccccc1C(C)(C)C)CC2 [Example 1.454] | ≤ 5 nM
44 | Cc1cccc(OCC(C)C)c1-n1nc2c(c1-c1ccc(N)cc1)CN(c1ccccc1C(C)(C)C)CC2 [Example 1.455] | 5 to 50 nM
45 | COc1cccc(C)c1-n1nc2c(c1-c1ccc(NC(N)=O)cc1)CN(c1ccccc1C(C)(C)C)CC2 [Example 1.456] | 5 to 50 nM
46 | Cc1ccc(C(C)(C)C)cc1N1CCc2nn(-c3c(C)cccc3OCC(C)C)c(-c3ccc(NC(N)=O)cc3)c2C1 [Example 1.457] | ≤ 5 nM

Row | SMILES | IC50
47 | Cc1ccc(C(C)(C)C)cc1N1CCc2nn(-c3c(C)cccc3OCC(C)C)c(-c3ccc(N)cc3)c2C1 [Example 1.458] | 5 to 50 nM
48 | COc1cccc(C)c1-n1nc2c(c1-c1ccc(N)cc1)CN(c1ccccc1C(C)(C)C)CC2 [Example 1.459] | 5 to 50 nM
49 | Cc1cccc(OC(C)C)c1-n1nc2c(c1-c1ccc(NC(N)=O)cc1)CN(c1ccccc1C(C)C)CC2 [Example 1.460] | ≤ 5 nM
50 | Cc1cccc(F)c1-n1nc2c(c1-c1ccc(NC(N)=O)cc1)CN(c1ccccc1C(C)C)CC2 [Example 1.461] | 50 to 500 nM
51 | COc1cccc(C)c1-n1nc2c(c1-c1ccc(NC(N)=O)cc1)CN(c1cc(C(C)(C)C)ccc1C)CC2 [Example 1.462] | 5 to 50 nM
52 | Cc1cc(NC(N)=O)ccc1-c1c2c(nn1-c1c(C)cccc1C)CCN(c1ccccc1C(C)C)C2 [Example 1.463] | ≤ 5 nM
53 | Cc1cccc(F)c1-n1nc2c(c1-c1ccc(N)cc1)CN(c1ccccc1C(C)C)CC2 [Example 1.464] | 50 to 500 nM
54 | Cc1cccc(OC(C)C)c1-n1nc2c(c1-c1ccc(N)cc1)CN(c1ccccc1C(C)C)CC2 [Example 1.465] | 5 to 50 nM
55 | Cc1cccc(C)c1-n1nc2c(c1-c1ccc(CO)cc1)CN(c1ccccc1C(C)C)CC2 [Example 1.467] | 50 to 500 nM
56 | Cc1cc(N)ccc1-c1c2c(nn1-c1c(C)cccc1C)CCN(c1ccccc1C(C)C)C2 [Example 1.468] | 50 to 500 nM
57 | COc1cccc(C)c1-n1nc2c(c1-c1ccc(N)cc1)CN(c1cc(C(C)(C)C)ccc1C)CC2 [Example 1.469] | 50 to 500 nM
58 | Cc1cccc(C)c1-n1nc2c(c1-c1ccc(C(N)=O)cc1)CN(c1ccccc1C(C)C)CC2 [Example 1.470] | 5 to 50 nM
59 | Cc1cccc(C)c1-n1nc2c(c1-c1ccc(N)cc1)CN(c1ccccc1C(C)(C)C)CC2 [Example 1.471] | 5 to 50 nM
60 | COc1ccc(-c2c3c(nn2-c2c(C)cccc2C)CCN(c2cc(C(C)(C)C)ccc2C)C3)cc1 [Example 1.472] | 50 to 500 nM
61 | Cc1cccc(OCC(C)C)c1-n1nc2c(c1-c1ccc(NC(N)=O)cc1)CN(c1ccccc1C(C)C)CC2 [Example 1.474] | ≤ 5 nM
62 | CCOc1cccc(C)c1-n1nc2c(c1-c1ccc(NC(N)=O)cc1)CN(c1ccccc1C(C)C)CC2 [Example 1.475] | 5 to 50 nM
63 | CCNc1ccc(-c2c3c(nn2-c2c(C)cccc2OC)CCN(c2ccccc2C(C)C)C3)cc1 [Example 1.476] | 5 to 50 nM
64 | Cc1cccc(C)c1-n1nc2c(c1-c1ccc(NC(C)C)cc1)CN(c1ccccc1C(C)C)CC2 [Example 1.477] | 50 to 500 nM
65 | Cc1cccc(C)c1-n1nc2c(c1-c1ccc(NC(N)=O)cc1)CN(c1ccccc1C(C)C)CC2 [Example 1.478] | 50 to 500 nM
66 | CCOc1cccc(C)c1-n1nc2c(c1-c1ccc(N)cc1)CN(c1ccccc1C(C)C)CC2 [Example 1.479] | 50 to 500 nM
67 | Cc1cccc(OCC(C)C)c1-n1nc2c(c1-c1ccc(N)cc1)CN(c1ccccc1C(C)C)CC2 [Example 1.480] | 5 to 50 nM
68 | Cc1cccc(C)c1-n1nc2c(c1-c1ccc(N)cc1)CN(c1ccccc1C(C)C)CC2 [Example 1.481] | 5 to 50 nM
